Assay results from patent publication US4229448A, “5-Substituted picolinic acid derivatives and an anti-hypertensive composition containing the same” (Meuji Seika Kaisha Ltd., priority 1978, dated 1980).
Counter-ions that a name gives are not always drawn.

Tests used:
[1] = system: spontaneously hypertensive rats; assay: Blood pressure changes, Tail Cuff Method, oral administration (Table 2); type: in vivo; settings: Rattus norvegicus, 100 mg/kg orally, read-out: Maximum Depression in Blood Pressure
Protocol: Each of the compounds of the invention as indicated below was suspended in a 5% aqueous gum arabic solution and the suspension was administered orally to groups consisting of three spontaneously hypertensive rats (17-23 week old; blood pressure before administration: 170-190 mmHg).

Oral LD50 = settings: in vivo
[2] = Acute toxicity (LD50), intraperitoneal (Table 1); type: in vivo; settings: mouse, in vivo, ip, male ICR mice, 5 week old, observed 1 week after administration
[3] = system: spontaneously hypertensive rats; assay: Blood pressure changes, Direct Blood Pressure Measuring Method, oral administration (Table 1); type: in vivo; settings: Rattus norvegicus, read-out: Maximum Depression in Blood Pressure
Protocol: Each of the compounds of the invention as indicated below was suspended in a 5% aqueous gum arabic solution and the suspension was administered orally (100 mg/kg) to groups consisting of three spontaneously hypertensive rats (18-23 week old; blood pressure before administration: 170-190 mmHg).

[4] = prior art; cited from earlier work
[5] = prior art; cited from earlier work; remark: listed apart in the source
[6] = system: male mice (ICR strain, 5 week old); assay: Acute toxicity (LD50), intraperitoneal (Table 1); type: in vivo; settings: observed 1 week after administration, 10080 min
Water solubility = type: physicochemical; settings: suited for subcutaneous injection
[7] = 100 mg/kg orally, spontaneously hypertensive rats, Direct Blood Pressure Measuring Method

Row | Compound | LD50 at 168 h [2] | inhibition in vivo at 100 mg/kg [3, 7] | further results
1 | CCOC(=O)c1ccc(Oc2ccc(Cl)cc2)cn1 [ethyl ester of 5-(p-chlorophenoxy)picolinic acid] | – | – | inhibition in vivo at 100 mg/kg [1]: 23.3%
2 | O=C(O)c1ccc(Oc2ccccc2C(F)(F)F)cn1 [5-(o-trifluoromethylphenoxy)picolinic acid] | 150 to 200 mg/kg | 27.6% | LD50 (Oral LD50): 400 to 600 mg/kg
3 | Cl.Cl.Nc1ccc(Oc2ccc(C(=O)O)nc2)cc1 [5-(p-aminophenoxy)picolinic acid dihydrochloride] | 450 to 500 mg/kg | 8.3% | –
4 | NC(=O)c1ccc(Oc2ccccc2C(F)(F)F)cn1 [5-(o-trifluoromethylphenoxy)picolinic acid amide] | – | – | LD50 (Oral LD50): 950 mg/kg; inhibition in vivo at 100 mg/kg [1]: 20.7%
5 | O=C(O)c1ccc(Oc2ccc(C(F)(F)F)cc2C(F)(F)F)cn1 [5-(2,4-Ditrifluoromethylphenoxy)picolinic Acid] | 200 to 250 mg/kg | 25.5% | –
6 | O=C(O)c1ccc(Oc2ccc(Br)cc2)cn1 [5-(p-Bromophenoxy)picolinic Acid, 5-(p-bromophenoxy)picolinic acid] | 150 to 200 mg/kg | 27.5% | –
7 | CCCCc1ccc(C(=O)O)nc1 [Fusaric Acid, 5-n-butylpicolinic acid, reference compound] | 75 to 100 mg/kg | – | LD50 value (in words) [4]: low LD50 value; anti-hypertensive activity (in words) [5]: useful as an anti-hypertensive agent; inhibition in vivo at 100 mg/kg [3]: 15.8%
8 | CC(=O)c1ccc(Oc2ccc(C(=O)O)nc2)cc1 [5-(p-Acetylphenoxy)picolinic Acid] | 400 to 500 mg/kg | 17.3% | –
9 | Cc1ccc(Oc2ccc(C(=O)O)nc2)cc1 [5-(p-Methylphenoxy)picolinic Acid, 5-(p-methylphenoxy)picolinic acid] | 200 to 300 mg/kg | 17% | –
10 | O=C(O)c1ccc(OCCCCl)cn1 [5-(3-Chloropropoxy)picolinic Acid, 5-(3-chloropropoxy)picolinic acid] | 150 to 200 mg/kg | 18.2% | –
11 | COc1ccc(Oc2ccc(C(=O)O)nc2)c(OC)c1 [5-(2,4-Dimethoxyphenoxy)picolinic Acid] | 400 to 450 mg/kg | 19.2% | –
12 | O=C(O)c1ccc(Oc2ccc(Cl)cc2)cn1 [Calcium Salt of 5-(p-Chlorophenoxy)picolinic Acid] | – | – | Acute Toxicity (LD50) [6]: 350 to 400 mg/kg
13 | O=C(Oc1ccc2c(c1)CCC2)c1ccc(Oc2ccccc2Cl)cn1 [indanyl ester of 5-(o-chlorophenoxy)picolinic acid] | – | – | inhibition in vivo at 100 mg/kg [1]: 29%
14 | NC(=O)c1ccc(Oc2ccccc2Cl)cn1 [5-(o-Chlorophenoxy)picolinic Acid Amide] | – | – | inhibition in vivo at 100 mg/kg [1]: 19.6%
15 | CCCCOc1ccc(C(=O)O)nc1 [5-n-Butoxy-picolinic Acid, reference compound] | 100 to 150 mg/kg | 16.6% | –
16 | O=C(O)c1ccc(Oc2c(Cl)cccc2Cl)cn1 [5-(2,6-Dichlorophenoxy)picolinic Acid] | 150 to 200 mg/kg | 23.7% | –
17 | O=C(Oc1ccc2c(c1)CCC2)c1ccc(Oc2ccccc2C(F)(F)F)cn1 [Indanyl Ester of 5-(o-Trifluoromethylphenoxy)picolinic Acid] | – | – | inhibition in vivo at 100 mg/kg [1]: 26.3%
18 | O=C(O)c1ccc(Oc2ccc([N+](=O)[O-])cc2)cn1 [5-(p-Nitrophenoxy)picolinic Acid, 5-(p-nitrophenoxy)picolinic acid] | 500 to 600 mg/kg | 15.1% | –
19 | O=C(O)c1ccc(Oc2ccc(Cl)cc2)cn1 [5-(p-Chlorophenoxy)picolinic Acid, 5-(p-chlorophenoxy)picolinic acid] | – | 28.3% | LD50 (Oral LD50): 400 to 600 mg/kg; Acute Toxicity (LD50) [6]: 150 to 200 mg/kg

Row | Compound | LD50 at 168 h [2] | inhibition in vivo at 100 mg/kg [3, 7] | further results
20 | O=C(O)c1ccc(OCCCCC(F)(F)F)cn1 [5-(5,5,5-Trifluoropentyloxy)picolinic Acid] [5-(5,5,5-trifluoropentyloxy)picolinicacid] | – | – | Acute Toxicity (LD50) [6]: 150 to 200 mg/kg
21 | O=C(O)c1ccc(OCCCCCl)cn1 [5-(4-Chlorobutoxy)picolinic Acid, 5-(4-chlorobutoxy)picolinic acid] | – | 23% | LD50 (Oral LD50): 900 mg/kg; Acute Toxicity (LD50) [6]: 150 to 200 mg/kg
22 | O=C(O)c1ccc(Oc2cccc(C(F)(F)F)c2)cn1 [5-(m-trifluoromethylphenoxy)picolinic acid] | 500 to 600 mg/kg | 20.8% | –
23 | O=C(O)c1ccc(Oc2ccccc2Cl)cn1 [5-(o-Chlorophenoxy)picolinic Acid, 5-(o-chlorophenoxy)picolinic acid] | 150 to 200 mg/kg | 30.1% | LD50 (Oral LD50): 400 to 600 mg/kg
24 | O=C(O)c1ccc(Oc2cccc(Cl)c2)cn1 [5-(m-Chlorophenoxy)picolinic Acid, 5-(m-chlorophenoxy)picolinic acid] | 300 to 400 mg/kg | 16.7% | –
25 | CC(OC(=O)c1ccc(Oc2ccc(Cl)cc2)cn1)OC(=O)C(C)(C)C (stereo not drawn) [α-pivaloyloxyethyl ester of 5-(p-chlorophenoxy)picolinic acid] | – | – | LD50 (Oral LD50): 900 to 1000 mg/kg; inhibition in vivo at 100 mg/kg [1]: 21.8%
26 | O=C(O)c1ccc(OCCCCCl)cn1 [Calcium Salt of 5-(4-Chlorobutoxy)picolinic Acid] [Calcium 5-(4-chlorobutoxy)picolinate] | – | – | Acute Toxicity (LD50) [6]: 800 to 1000 mg/kg
27 | NC(=O)c1ccc(Oc2ccc(Cl)cc2)cn1 [5-(p-Chlorophenoxy)picolinic Acid Amide, 5-(p-chlorophenoxy)picolinic acid amide] | – | – | inhibition in vivo at 100 mg/kg [1]: 23.7%
28 | O=C(O)c1ccc(Oc2ccc(C(F)(F)F)cc2)cn1 [5-(p-trifluoromethylphenoxy)picolinic acid] | 200 to 250 mg/kg | 29.3% | –
29 | O=C(Oc1ccc2c(c1)CCC2)c1ccc(OCCCCCl)cn1 [5-indanyl ester of 5-(4-chlorobutoxy)picolinic acid] | – | – | LD50 (Oral LD50): 1600 to 1800 mg/kg; inhibition in vivo at 100 mg/kg [1]: 26.3%
30 | O=C(O)c1ccc(OCCCCC(F)(F)F)cn1 [Calcium Salt of 5-(5,5,5-Trifluoropentyloxy)picolinic Acid] [Calcium 5-(5,5,5-trifluoropentyloxy)picolinate] | – | – | Acute Toxicity (LD50) [6]: 800 to 900 mg/kg
31 | CN(C)CCOC(=O)c1ccc(OCCCCCl)cn1 [dimethylaminoethyl ester of 5-(4-chlorobutoxy)picolinic acid hydrochloride] | – | – | water solubility (Water solubility): increased water solubility
32 | O=C(O)c1ccc(Oc2ccc(Cl)cc2Cl)cn1 [5-(2,4-Dichlorophenoxy)picolinic Acid] | 150 to 200 mg/kg | 24.6% | –
33 | NC(=O)c1ccc(OCCCCCl)cn1 [5-(4-Chlorobutoxy)picolinic Acid Amide, 5-(4-chlorobutoxy)picolinic acid amide] | – | – | LD50 (Oral LD50): 1500 to 1600 mg/kg; inhibition in vivo at 100 mg/kg [1]: 21.5%
34 | O=C(O)c1ccc(OCCCCC(F)(F)F)cn1 [5-(5,5,5-trifluoropentyloxy)picolinicacid] | – | 28.7% | –
35 | Cc1ccc(Oc2ccc(C(=O)O)nc2)c(C)c1 [5-(2,4-Dimethylphenoxy)picolinic Acid] | 250 to 300 mg/kg | 16.9% | –
36 | COc1ccc(Oc2ccc(C(=O)O)nc2)cc1 [5-(p-Methoxyphenoxy)picolinic Acid, 5-(p-methoxyphenoxy)picolinic acid] | 500 to 600 mg/kg | 14.2% | –
37 | O=C(Oc1ccc2c(c1)CCC2)c1ccc(Oc2ccc(Cl)cc2)cn1 [indanyl ester of 5-(p-chlorophenoxy)picolinic acid] | – | – | LD50 (Oral LD50): 700 to 800 mg/kg; inhibition in vivo at 100 mg/kg [1]: 27.5%
